Measured values reported in patent publication US20250296916A1, “BICYCLIC PIPERAZINONES AND THERAPEUTIC USES THEREOF” (Cytokinetics, Inc., priority 2022, published 2025).

test system: rabbit skeletal myofibrils (approximately 90% fast fibers); test: Activation of fast skeletal myofibrils (PUMA coupled-enzyme ATPase assay); format: biochemical; details: concentration at which the compound increased the enzymatic activity by 40%; calcium at pCa25; PM12 buffer pH 6.8
Description: Preparation of fast skeletal myofibrils: Rabbit skeletal myofibrils were prepared based upon the method of Herrmann et al. (Biochem. 32 (28): 7255-7263 (1993). Myofibrils were prepared from rabbit psoas muscle purchased from Pel-Freez Biologicals (Arkansas) within 2 days of ordering, stored on ice. Minced muscle was homogenized in 10 volumes of ice-cold “standard” buffer (50 mM Tris, pH 7.4, 0.1 M KOAc, 5 mM KCl, 2 mM dithiothreitol (DTT), 0.2 mM phenylmethylsulfonyl fluoride (PMSF), 10 μM leupeptin, 5 μM pepstatin, and 0.5 mM sodium azide) containing 5 mM ethylenediaminetetraacetic acid (EDTA) and 0.5% Triton X-100 using an Omni-Macro homogenizer. Myofibrils were recovered by low speed centrifugation (3000 rpm for 10 minutes) and washed 2 times in the Triton X-100 containing buffer to ensure removal of cellular membrane. Following the Triton washes, myofibrils were washed 3 times in “standard” buffer containing 2 mM magnesium acetate. A final wash in assay buffer (12 mM piperazine-1,4-bis(2-ethanesulfonic acid) (PIPES), pH 6.8, 60 mM KCl, 1 mM DTT) was performed and brought to 10% sucrose for flash freezing in liquid nitrogen and storage at −80° C.
Activation of Fast Skeletal Myofibrils: Fast fiber activators were identified by measuring the enzymatic activity of muscle myofibril preparations using the proprietary PUMA (trademark) (see, e.g., U.S. Pat. Nos. 6,410,254, 6,743,599, 7,202,051, and 7,378,254) assay system. Myofibril preparations consisted of rabbit skeletal muscle (approximately 90% fast fibers) that had been mechanically homogenized and washed with a detergent (Triton X-100) to remove cellular membranes. This preparation retained all of the sarcomeric components in a native conformation and the enzymatic activity was still regulated by calcium. Compounds were tested using a myofibril suspension and a level of calcium sufficient to increase enzymatic activity of the myofibrils to 25% of their maximal rate (termed pCa25). Enzymatic activity was tracked via a pyruvate kinase and lactate dehydrogenase-coupled enzyme system. This assay regenerates myosin-produced ADP into ATP by oxidizing NADH, producing an absorbance change at 340 nm. The buffering system was 12 mM PIPES, 2 mM MgCl2, 1 mM DTT at pH 6.8 (PM12 buffer). […] In Table 3, “Example Compound” refers to the compound labeled with the same number in Table 2.

| SMILES | AC1.4 [µM] |
| --- | --- |
| CCC[C@H]1C(=O)Nc2ccccc2N1C(=O)c1ccc(N(C)Cc2ccccc2)nc1 [Compound 39, (S)-4-(6-(benzyl(methyl)amino)nicotinoyl)-3-propyl-3,4-dihydroquinoxalin-2(1H)-one] | 0.27 |
| CCC[C@H]1C(=O)Nc2ccccc2N1C(=O)c1ccc(N2CC(OC)C2)nc1 [Compound 40, (S)-4-(6-(3-methoxyazetidin-1-yl)nicotinoyl)-3-propyl-3,4-dihydroquinoxalin-2(1H)-one] | 2.37 |
| CCC[C@H]1C(=O)Nc2ccccc2N1C(=O)c1ccc(N2CCC(F)C2)nc1 (stereo partly drawn) [Compound 41, (3S)-4-(6-(3-fluoropyrrolidin-1-yl)nicotinoyl)-3-propyl-3,4-dihydroquinoxalin-2(1H)-one] | 1.63 |
| CCC[C@H]1C(=O)Nc2ccccc2N1C(=O)c1ccc(N2CC(F)(F)C2)nc1 [Compound 42, (S)-4-(6-(3,3-difluoroazetidin-1-yl)nicotinoyl)-3-propyl-3,4-dihydroquinoxalin-2(1H)-one] | 2.34 |
| CCC[C@H]1C(=O)Nc2ccccc2N1C(=O)c1ccc(N2CCC(F)(F)C2)nc1 [Compound 43, (S)-4-(6-(3,3-difluoropyrrolidin-1-yl)nicotinoyl)-3-propyl-3,4-dihydroquinoxalin-2(1H)-one] | 2.78 |
| CCC[C@H]1C(=O)Nc2ccccc2N1C(=O)c1ccc(N(C)CCC(F)(F)F)nc1 [Compound 44, (S)-4-(6-(methyl(3,3,3-trifluoropropyl)amino)nicotinoyl)-3-propyl-3,4-dihydroquinoxalin-2(1H)-one] | 2.61 |
| CCC[C@H]1C(=O)Nc2ccccc2N1C(=O)c1cn(C)nc1C [Compound 45, (S)-4-(1,3-dimethyl-1H-pyrazole-4-carbonyl)-3-propyl-3,4-dihydroquinoxalin-2(1H)-one] | 0.2 |
| CCC[C@H]1C(=O)Nc2ccccc2N1C(=O)NC1CCCCC1 [Compound 46, (S)-N-cyclohexyl-3-oxo-2-propyl-3,4-dihydroquinoxaline-1(2H)-carboxamide] | 0.47 |
| CCC[C@H]1C(=O)Nc2ccccc2N1C(=O)Nc1cccnc1 [Compound 47, (S)-3-oxo-2-propyl-N-(pyridin-3-yl)-3,4-dihydroquinoxaline-1(2H)-carboxamide] | 1.51 |
| CCC[C@H]1C(=O)Nc2ccccc2N1C(=O)Nc1ccncc1 [Compound 48, (S)-3-oxo-2-propyl-N-(pyridin-4-yl)-3,4-dihydroquinoxaline-1(2H)-carboxamide] | 1.08 |
| CCC[C@H]1C(=O)Nc2ccccc2N1C(=O)NCc1ccccc1 [Compound 49, (S)-N-benzyl-3-oxo-2-propyl-3,4-dihydroquinoxaline-1(2H)-carboxamide] | 2.08 |
| CCC[C@H]1C(=O)Nc2ccccc2N1C(=O)N[C@@H](C)c1ccccc1 [Compound 50, (S)-3-oxo-N-((S)-1-phenylethyl)-2-propyl-3,4-dihydroquinoxaline-1(2H)-carboxamide] | 2.36 |
| CCC[C@H]1C(=O)Nc2ccccc2N1C(=O)NCC1CCCCC1 [Compound 51, (S)-N-(cyclohexylmethyl)-3-oxo-2-propyl-3,4-dihydroquinoxaline-1(2H)-carboxamide] | 0.48 |
| CCC[C@H]1C(=O)Nc2ccccc2N1C(=O)N1CCc2ccccc21 [Compound 52, (S)-4-(indoline-1-carbonyl)-3-propyl-3,4-dihydroquinoxalin-2(1H)-one] | 0.58 |
| CCC[C@H]1C(=O)Nc2ccccc2N1C(=O)Nc1ccccc1OC [Compound 53, (S)-N-(2-methoxyphenyl)-3-oxo-2-propyl-3,4-dihydroquinoxaline-1(2H)-carboxamide] | 0.55 |
| CCC[C@H]1C(=O)Nc2ccccc2N1C(=O)Nc1cccc(OC)c1 [Compound 54, (S)-N-(3-methoxyphenyl)-3-oxo-2-propyl-3,4-dihydroquinoxaline-1(2H)-carboxamide] | 0.31 |
| CCC[C@H]1C(=O)Nc2ccccc2N1C(=O)Nc1ccc(OC)cc1 [Compound 55, (S)-N-(4-methoxyphenyl)-3-oxo-2-propyl-3,4-dihydroquinoxaline-1(2H)-carboxamide] | 1.88 |
| CCC[C@H]1C(=O)Nc2ccccc2N1C(=O)Nc1ccccc1F [Compound 56, (S)-N-(2-fluorophenyl)-3-oxo-2-propyl-3,4-dihydroquinoxaline-1(2H)-carboxamide] | 0.42 |

| SMILES | AC1.4 [µM] |
| --- | --- |
| CCC[C@H]1C(=O)Nc2ccccc2N1C(=O)Nc1cccc(F)c1 [Compound 57, (S)-N-(3-fluorophenyl)-3-oxo-2-propyl-3,4-dihydroquinoxaline-1(2H)-carboxamide] | 0.24 |
| CCC[C@H]1C(=O)Nc2ccccc2N1C(=O)Nc1ccc(F)cc1 [Compound 58, (S)-N-(4-fluorophenyl)-3-oxo-2-propyl-3,4-dihydroquinoxaline-1(2H)-carboxamide] | 0.26 |
| CCC[C@H]1C(=O)Nc2ccccc2N1C(=O)Nc1cnn(C)c1 [Compound 59, (S)-N-(1-methyl-1H-pyrazol-4-yl)-3-oxo-2-propyl-3,4-dihydroquinoxaline-1(2H)-carboxamide] | 1.96 |
| CCC[C@H]1C(=O)Nc2ccccc2N1C(=O)Nc1ccccc1C [Compound 60, (S)-3-oxo-2-propyl-N-(o-tolyl)-3,4-dihydroquinoxaline-1(2H)-carboxamide] | 0.82 |
| CCC[C@H]1C(=O)Nc2ccccc2N1C(=O)Nc1cccc(C)c1 [Compound 61, (S)-3-oxo-2-propyl-N-(m-tolyl)-3,4-dihydroquinoxaline-1(2H)-carboxamide] | 0.43 |
| CCC[C@H]1C(=O)Nc2ccccc2N1C(=O)Nc1ccc(C)cc1 [Compound 62, (S)-3-oxo-2-propyl-N-(p-tolyl)-3,4-dihydroquinoxaline-1(2H)-carboxamide] | 1.39 |
| CC[C@H](C)[C@H]1C(=O)Nc2ccccc2N1C(=O)c1cnn(C)c1 [Compound 63, (S)-3-((S)-sec-butyl)-4-(1-methyl-1H-pyrazole-4-carbonyl)-3,4-dihydroquinoxalin-2(1H)-one] | 0.04 |
| CCC[C@H]1C(=O)Nc2ccc(Cl)cc2N1C(=O)c1cnn(C)c1 [Compound 64, (S)-6-Chloro-4-(1-methyl-1H-pyrazole-4-carbonyl)-3-propyl-3,4-dihydroquinoxalin-2(1H)-one] | 0.24 |
| CCC[C@H]1C(=O)Nc2ccccc2N1C(=O)c1ccc2cncn2c1 [Compound 65, (S)-4-(imidazo[1,5-a]pyridine-6-carbonyl)-3-propyl-3,4-dihydroquinoxalin-2(1H)-one] | 0.39 |
| CCC[C@H]1C(=O)Nc2ccccc2N1C(=O)c1ccn2cncc2c1 [Compound 66, (S)-4-(imidazo[1,5-a]pyridine-7-carbonyl)-3-propyl-3,4-dihydroquinoxalin-2(1H)-one] | 0.17 |
| CCC[C@H]1C(=O)Nc2ccccc2N1C(=O)c1cnn(CCO)c1 [Compound 67, (S)-4-(1-(2-hydroxyethyl)-1H-pyrazole-4-carbonyl)-3-propyl-3,4-dihydroquinoxalin-2(1H)-one] | 1.31 |
| CC(C)C[C@H]1C(=O)Nc2ccccc2N1C(=O)c1cnn(C)c1 [Compound 68, (S)-3-isobutyl-4-(1-methyl-1H-pyrazole-4-carbonyl)-3,4-dihydroquinoxalin-2(1H)-one] | 0.16 |
| CCC[C@H]1C(=O)Nc2cccc(Br)c2N1C(=O)c1cnn(C)c1 [Compound 69, (S)-5-bromo-4-(1-methyl-1H-pyrazole-4-carbonyl)-3-propyl-3,4-dihydroquinoxalin-2(1H)-one] | 1.52 |
| CCC[C@H]1C(=O)Nc2ccccc2N1C(=O)c1cc2cccn2cn1 [Compound 70, (S)-3-propyl-4-(pyrrolo[1,2-c]pyrimidine-3-carbonyl)-3,4-dihydroquinoxalin-2(1H)-one] | 0.46 |
| CCC[C@H]1C(=O)Nc2ccccc2N1C(=O)c1cn[nH]c1 [Compound 71, (S)-3-propyl-4-(1H-pyrazole-4-carbonyl)-3,4-dihydroquinoxalin-2(1H)-one] | 0.54 |
| CC[C@H](C)[C@H]1C(=O)Nc2ccccc2N1C(=O)c1cn[nH]c1 [Compound 72, (S)-3-((S)-sec-butyl)-4-(1H-pyrazole-4-carbonyl)-3,4-dihydroquinoxalin-2(1H)-one] | 0.07 |
| CCC[C@H]1C(=O)Nc2ccccc2N1C(=O)c1cnc2[nH]ncc2c1 [Compound 73, (S)-3-propyl-4-(1H-pyrazolo[3,4-b]pyridine-5-carbonyl)-3,4-dihydroquinoxalin-2(1H)-one] | 0.11 |
